# Activity calls are given as the source filed them. No rule for the calls is given here.
# Molecular target: Protein kinase C delta type (Homo sapiens, UniProt Q05655)
# Type: functional
# Chain of Protein kinase C delta type (Q05655 whole entry): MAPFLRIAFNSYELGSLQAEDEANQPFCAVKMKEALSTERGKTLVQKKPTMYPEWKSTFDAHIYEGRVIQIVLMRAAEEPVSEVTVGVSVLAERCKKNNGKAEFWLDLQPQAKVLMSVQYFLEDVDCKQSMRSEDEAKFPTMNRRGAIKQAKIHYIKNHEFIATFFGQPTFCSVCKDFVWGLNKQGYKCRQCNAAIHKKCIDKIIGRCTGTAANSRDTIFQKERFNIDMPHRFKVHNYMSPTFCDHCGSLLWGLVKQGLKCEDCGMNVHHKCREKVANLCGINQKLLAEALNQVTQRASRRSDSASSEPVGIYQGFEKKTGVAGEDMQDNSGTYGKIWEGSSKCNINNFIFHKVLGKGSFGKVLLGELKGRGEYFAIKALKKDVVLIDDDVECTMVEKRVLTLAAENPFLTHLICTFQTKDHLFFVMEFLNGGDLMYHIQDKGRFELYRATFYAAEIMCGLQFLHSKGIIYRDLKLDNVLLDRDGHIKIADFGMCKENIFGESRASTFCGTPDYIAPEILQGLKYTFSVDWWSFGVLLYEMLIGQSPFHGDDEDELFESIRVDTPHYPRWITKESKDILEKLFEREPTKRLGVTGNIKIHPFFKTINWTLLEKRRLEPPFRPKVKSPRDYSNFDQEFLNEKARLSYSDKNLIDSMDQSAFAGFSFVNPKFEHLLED
smiles,measurement,value
Clc1cc(-c2c[nH]c3ncccc23)nc(NC2CCCCC2)n1,Ki,> 7.94 µM (inactive)

# — ChEMBL document CHEMBL1201862, “PubChem BioAssay data set” (2004)
